Our source for the IC50 values is patent US20080027042A1, “Novel Aminopyridine Derivatives Having Aurora a Selective Inhibitory Action” (priority 2004, published 2008).

Counter-ions that a name gives are not always drawn.

One assay deals with T1, Aurora A (Homo sapiens, UniProt O14965).
T1 construct: histidine tag (N); made in house; host or cells: Escherichia coli BL21-CodonPlus(DE3)-RIL
T1 sequence (O14965 1-403): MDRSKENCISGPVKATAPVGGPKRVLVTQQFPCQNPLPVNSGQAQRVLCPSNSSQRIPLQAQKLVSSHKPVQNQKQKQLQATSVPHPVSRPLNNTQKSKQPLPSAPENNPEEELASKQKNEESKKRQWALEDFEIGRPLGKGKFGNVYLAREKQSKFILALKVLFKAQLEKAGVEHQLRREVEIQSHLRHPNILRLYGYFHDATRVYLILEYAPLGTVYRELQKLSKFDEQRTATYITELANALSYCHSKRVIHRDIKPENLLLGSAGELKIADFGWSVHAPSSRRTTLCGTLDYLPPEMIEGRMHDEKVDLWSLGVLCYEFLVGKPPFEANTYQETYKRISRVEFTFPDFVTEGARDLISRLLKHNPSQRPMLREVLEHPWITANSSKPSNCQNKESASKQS
As to the kind of experiment: Aurora A inhibitory action (33P-ATP kinase assay, Kemptide substrate). The assay is classed as biochemical. Particulars: 20 μM ATP, 30° C., 20 minutes. The text has this: Aurora A Inhibitory Action
(1) Purification of Aurora A
cDNA of Aurora A having histidine tag fused at the amino terminal was integrated into an expression vector, which was then highly expressed in Escherichia coli BL2 1-CodonPlus(DE3)-RIL cells. The Escherichia coli cells were recovered and solubilized, and then the histidine-tagged Aurora A protein was adsorbed onto a nickel chelate column and eluted from the column with imidazole. The active fraction was desalted with a desalting column to give a pure enzyme.
(2) Measurement of Activity of Aurora A
For measurement of the activity of Aurora A, the substrate used was Kemptide (Lys-Arg-Arg-Ala-Ser-Lys-Gly) (SEQ.ID.NO.: 1), a synthetic peptide purchased from Sigma-Aldrich, Inc. [Certificate of analysis (Upstate, Inc.)].
Reaction was conducted by a partial modification of a method by Upstate, Inc. [Kinase Profiler™ Assay Protocols]. The amount of the reaction liquid was 21.1 μL, and the composition of the reaction buffer (R2 buffer) was 50 mM Tris-hydrochloride buffer (pH 7.4)/15 mM magnesium acetate/0.2 mM ethylenediamine-N,N,N′,N′-tetraacetate (EDTA). To this, purified Aurora A, 100 μM of a substrate peptide, 20 μM of unlabeled adenosine triphosphate (ATP) and 0.5 μCi of [γ-^33P] labeled ATP (2,500 Ci/mmole or more) were added, and the mixture was reacted at 30° C. for 20 minutes. Then, 10 μL of 350 mM phosphate buffer was added to the reaction system to stop the reaction. The substrate peptide was adsorbed on a P81 paper filter 96-well plate and then washed with 130 mM phosphate buffer for several times. The radiation activity of the peptide was measured with a liquid scintillation counter. The [γ-^33P] labeled ATP was purchased from Amersham Biosciences Co., Ltd.
(§1) The compound to be tested was added to the reaction system such that a dilution series of the compound in dimethylsulfoxide was first prepared, and 1.1 μL of this solution was added. A control was provided by adding 1.1 μL of DMSO to the reaction system.

For another assay, the target named is T2, Aurora B (Homo sapiens, UniProt Q96GD4).
T2 construct: histidine tag (N); made in house; host or cells: Escherichia coli BL21-CodonPlus(DE3)-RIL
T2 sequence (Q96GD4 whole entry): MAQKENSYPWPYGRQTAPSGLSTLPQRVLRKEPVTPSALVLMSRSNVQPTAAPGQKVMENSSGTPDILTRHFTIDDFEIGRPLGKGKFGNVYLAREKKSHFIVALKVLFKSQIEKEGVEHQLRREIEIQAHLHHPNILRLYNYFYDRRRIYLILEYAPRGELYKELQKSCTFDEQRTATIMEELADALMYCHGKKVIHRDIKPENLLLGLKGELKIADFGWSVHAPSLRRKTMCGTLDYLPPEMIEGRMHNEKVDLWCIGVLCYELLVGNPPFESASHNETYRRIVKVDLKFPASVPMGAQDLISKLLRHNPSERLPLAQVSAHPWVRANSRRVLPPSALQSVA
Description: Aurora B inhibitory action (33P-ATP kinase assay, Kemptide substrate). The assay is classed as biochemical. The conditions noted are these: 100 μM ATP, 30° C., 20 minutes.
Description: Aurora B Inhibitory Action
(1) Purification of Aurora B
cDNA of Aurora B having histidine tag fused at the amino terminal was integrated into an expression vector, which was then highly expressed in Escherichia coli BL21-CodonPlus(DE3)-RIL cells. The Escherichia coli cells were recovered and solubilized, and then the histidine-tagged […] protein was adsorbed onto a nickel chelate column and eluted from the column with imidazole. The active fraction was desalted with a desalting column to give a pure enzyme.
(2) Measurement of Activity of Aurora B
For measurement of the activity of Aurora B, the substrate used was Kemptide (Lys-Arg-Arg-Ala-Ser-Lys-Gly) (SEQ.ED.NO.: 1), a synthetic peptide purchased from Sigma-Aldrich, Inc. [Certificate of analysis (Upstate, Inc.)].
Reaction was conducted by a partial modification of the method of activity measurement for Aurora A. The amount of the reaction liquid was 21.1 μL, and the composition of the reaction buffer (R2 buffer) was 50 mM Tris-hydrochloride buffer (pH 7.4)/15 mM magnesium acetate/0.2 mM ethylenediamine-N,N,N′,N′-tetraacetate (EDTA). To this, purified Aurora B, 100 μM of a substrate peptide, 100 μM of unlabeled adenosine triphosphate (ATP) and 1 μCi of [γ-^33P] labeled ATP (2,500 Ci/mmole or more) were added, and the mixture was reacted at 30° C. for 20 minutes. Then, 10 μL of 350 mM phosphate buffer was added to the reaction system to stop the reaction. The substrate peptide was adsorbed on a P81 paper filter 96-well plate and then washed with 130 mM phosphate buffer for several times. The radiation activity of the peptide was measured with a liquid scintillation counter. The [γ-^33P] labeled ATP was purchased from Amersham Biosciences Co., Ltd.
as §1

With `O=C(c1cccc(Cl)c1F)N1CCCN(Cc2cccc(Nc3nccs3)n2)CC1` [Example 63, 6-((4-(3-chloro-2-fluorobenzoyl)-1,4-diazepan-1-yl)methyl)-N-thiazol-2-ylpyridin-2-amine], the IC50 came to 1.3 nM against Aurora A and 570 nM at Aurora B.
Taken in the same sequence, the figures for `CC(c1cccc(Nc2cc[nH]n2)n1)N1CCN(C(=O)c2cccc(Cl)c2F)CC1` (stereo not shown) [Example 24, 6-(1-(4-(3-chloro-2-fluorobenzoyl)piperazin-1-yl)ethyl)-N-1H-pyrazol-3-ylpyridin-2-amine] were 23 nM and 26000 nM.
As to `O=C(c1cccc(Cl)c1F)N1C[C@@H]2C[C@H]1CN2Cc1cccc(Nc2cc[nH]n2)n1` [Example 23, 6-(((1 S,4S)-5-(3-chloro-2-fluorobenzoyl)-2,5-diazabicyclo[2.2.1]hept-2-yl)methyl)-N-1H-pyrazol-3-ylpyridin-2-amine], the IC50 against Aurora A is 3.6 nM; on Aurora B, 1200 nM.
On to `O=C(c1cccnc1F)N1CCN(Cc2cccc(Nc3ncc(Br)s3)n2)CC1` [Example 78, 6-((4-((2-fluoropyridin-3-yl)carbonyl)piperazin-1-yl)methyl)-N-(5-bromothiazol-2-yl)pyridin-2-amine], for which the IC50 is 2 nM against Aurora A and 240 nM on Aurora B.
Turning to `O=C(c1cccc(C(F)(F)F)c1F)N1C[C@@H]2C[C@H]1CN2Cc1cncc(Nc2cc[nH]n2)n1` [Example 47, 6-(((lS,4S)-5-(2-fluoro-3-(trifluoromethyl)benzoyl)-2,5-diazabicyclo[2.2.1]hept-2-yl)methyl)-N-1H-pyrazol-3-ylpyrazin-2-amine], the IC50 worked out at 5.5 nM on Aurora A and 2200 nM against Aurora B.
On the same counts, the results for `N#Cc1ccccc1C(=O)N1CCN(Cc2cccc(Nc3ncc(Cl)s3)n2)CC1` [Example 70, 6-((4-(2-cyanobenzoyl)piperazin-1-yl)methyl)-N-(5-chlorothiazol-2-yl)pyridin-2-amine] are 2.4 nM and 96 nM.
As to `O=C(c1cccc(C(F)F)c1F)N1CCN(Cc2cccc(Nc3ncns3)n2)CC1` [Example 41, 6-((4-(2-fluoro-3-(difluoromethyl)benzoyl)piperazin-1-yl)methyl)-N-1,2,4-thiadiazol-5-ylpyridin-2-amine trifluoroacetate], the figures for the IC50 on Aurora A and at Aurora B were 2.9 nM and 5000 nM, respectively.
Taken in the same sequence, the figures for `O=C(c1cccc(C(F)F)c1F)N1CCN(Cc2cccc(Nc3nccs3)n2)CC1` [Example 15, 6-((4-(3-(difluoromethyl)-2-fluorobenzoyl)piperazin-1-yl)methyl)-N-thiazol-2-ylpyridin-2-amine] were 1.4 nM and 1000 nM.
Consider `O=C(c1cccc(Cl)c1F)N1C[C@H]2C[C@@H]1CN2Cc1cccc(Nc2nccs2)n1` [Example 11, 6-(((1R,4R)-5-(3-chloro-2-fluorobenzoyl)-2,5-diazabicyclo[2.2.1]hept-2-yl)methyl)-N-thiazol-2-ylpyridin-2-amine], for which the IC50 against Aurora A amounted to 1.3 nM; against Aurora B it was 570 nM.
Regarding `CN1CCN(c2cc(CN3CCN(C(=O)c4cccc(Cl)c4F)CC3)nc(Nc3nccs3)c2)C1=O` [Example 98, 3-(2-((4-(3-chloro-2-fluorobenzoyl)piperazin-1-yl)methyl)-6-(thiazol-2-ylamino)pyridin-4-yl)-3-methylimidazolidin-2-one], the results for the IC50 against Aurora A and against Aurora B were 0.36 nM and 230 nM, respectively.
Taken in the same sequence, the figures for `O=C(c1cccc(Br)c1F)N1CCN(Cc2cccc(Nc3cc[nH]n3)n2)CC1` [Example 20, 6-((4-(3-bromo-2-fluorobenzoyl)piperazin-1-yl)methyl)-N-1H-pyrazol-3-ylpyridin-2-amine trifluoroacetate] were 1.1 nM and 1800 nM.
Regarding `O=C(c1cccc(Cl)c1F)N1CCN(Cc2cc(Cn3nccn3)cc(Nc3nccs3)n2)CC1` [Example 91, 6-((4-(3-chloro-2-fluorobenzoyl)piperazin-1-yl)methyl)-N-thiazol-2-yl-4-(2H-1,2,3-triazol-2-ylmethyl)pyridin-2-amine trifluoroacetate], the IC50 against Aurora A is 1.4 nM; against Aurora B it was 1200 nM.
Take `O=C(c1cccc(Cl)c1F)N1CCN(Cc2cc(Cn3cncn3)cc(Nc3nccs3)n2)CC1` [Example 92, 6-((4-(3-chloro-2-fluorobenzoyl)piperazin-1-yl)methyl)-N-thiazol-2-yl-4-(1H-1,2,4-triazol-1-ylmethyl)pyridin-2-amine trifluoroacetate]: the results for the IC50 against Aurora A and on Aurora B were 0.93 nM and 830 nM, respectively.
Taken in the same sequence, the figures for `O=C(c1cccc(Br)c1F)N1CCN(Cc2cccc(Nc3nccs3)n2)CC1` [Example 12, 6-((4-(3-bromo-2-fluorobenzoyl)piperazin-1-yl)methyl)-N-thiazol-2-ylpyridin-2-amine trifluioroacetate] were 0.52 nM and 400 nM.
Taken in the same sequence, the figures for `O=C(c1cccc(Cl)c1F)N1C[C@@H]2C[C@H]1CN2Cc1cccc(Nc2nccs2)n1` [Example 10, 6-(((1S,4S)-5-(3-chloro-2-fluorobenzoyl)-2,5-diazabicyclo[2.2.1]hept-2-yl)methyl)-N-thiazol-2-ylpyridin-2-amine trifluoroacetate] were 0.49 nM and 92 nM.
Consider `O=C(c1cccc(C(F)(F)F)c1F)N1CCN(Cc2cccc(Nc3nccs3)n2)CC1` [Example 13, 6-((4-(2-fluoro-3-(trifluoromethyl)benzoyl)piperazin-1-yl)methyl)-N-thiazol-2-ylpyridin-2-amine trifluoroacetate], for which the IC50 at Aurora A came out at 0.89 nM; at Aurora B, 380 nM.
On the same counts, the results for `O=C(c1ccccc1)N1CCCN(Cc2cccc(Nc3ncns3)n2)CC1` [Example 35, 6-((4-benzoyl-1,4-diazepan-1-yl)methyl)-N-1,2,4-thiadiazol-5-ylpyridin-2-amine] are 31 nM and 3400 nM.
In the case of `O=C(c1cccc(F)c1F)N1CCN(Cc2cc(NCC(F)F)cc(Nc3nccs3)n2)CC1` [Example 100, 6-((4-(2,3-difluorobenzoyl)piperazin-1-yl)methyl)-N4-(2,2-difluoroethyl)-N^2-thiazol-2-ylpyridine-2,4-diamine], the results for the IC50 at Aurora A and at Aurora B were 2.6 nM and 1300 nM, respectively.
For the compound `O=C(c1cccc(F)c1Cl)N1CCN(Cc2cccc(Nc3nccs3)n2)CC1` [Example 9, 6-((4-(2-chloro-3-fluorobenzoyl)piperazin-1-yl)methyl)-N-thiazol-2-ylpyridin-2-amine], the IC50 against Aurora A came out at 1.3 nM; on Aurora B, 760 nM.
Taken in the same sequence, the figures for `O=C(c1nccs1)N1CCN(Cc2cccc(Nc3ncc(Cl)s3)n2)CC1` [Example 67, 6-((4-(thiazol-2-ylcarbonyl)piperazin-1-yl)methyl)-N-(5-chlorothiazol-2-yl)pyridin-2-amine] were 17 nM and 320 nM.

As a reminder, the IC50 is the concentration that gives 50% inhibition. Read a high IC50 as weaker potency in that assay.
